Source: the supplement of paper PMC6004109

Assays:
Conditions in all cases: temperature: 37 °C
[1] = system: Saccharomyces cerevisiae ZIM 2566 (RPMI); assay: FICI minimum (fractional inhibitory concentration index, Loewe) (dimensionless); higher = less synergy / more antagonism
Protocol: (§1)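 CLSI M27-A3 checkerboard broth microdilution of an immunomodulatory drug (or amoxicillin) combined with an antifungal against S. cerevisiae and C. glabrata isolates. Growth was read as OD600 after incubation at 37 °C (48 h for the reported MICs). Reported quantities are the FICI (Loewe: MIC50 for azoles and immunomodulators, MIC90 for AMB; ≤0.5 synergy, ≥4 antagonism), as minimum and maximum over the surface, and the Bliss-independence sum of statistically significant ΔE (positive = synergy). Clinical isolates were tested in RPMI; C. glabrata ATCC 2001 and its pdr1Δ mutant were tested in YPD.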

[2] = system: Saccharomyces cerevisiae ZIM 2247 (RPMI); assay: as above
Protocol: as §1

[3] = system: Saccharomyces cerevisiae ZIM 2558 (RPMI); assay: as above
Protocol: as §1

[4] = system: Candida glabrata ZIM 2344 (RPMI); assay: as above
Protocol: as §1

[5] = system: Candida glabrata ZIM 2369 (RPMI); assay: as above
Protocol: as §1

[6] = system: Candida glabrata ZIM 2385 (RPMI); assay: as above
Protocol: as §1

[7] = system: Candida glabrata ZIM 2382 (RPMI); assay: as above
Protocol: as §1

[8] = system: Saccharomyces cerevisiae ZIM 2255 (RPMI); assay: as above
Protocol: as §1

[9] = system: Candida glabrata ZIM 2389 (RPMI); assay: as above
Protocol: as §1

[10] = system: Saccharomyces cerevisiae ZIM 2260 (RPMI); assay: as above
Protocol: as §1

[11] = system: Candida glabrata ZIM 2365 (RPMI); assay: as above
Protocol: as §1

[12] = system: Saccharomyces cerevisiae ZIM 2269 (RPMI); assay: as above
Protocol: as §1

[13] = system: Saccharomyces cerevisiae ZIM 2566 (RPMI); assay: FICI maximum (fractional inhibitory concentration index, Loewe) (dimensionless); higher = less synergy / more antagonism
Protocol: as §1

[14] = system: Saccharomyces cerevisiae ZIM 2247 (RPMI); assay: as above
Protocol: as §1

[15] = system: Saccharomyces cerevisiae ZIM 2558 (RPMI); assay: as above
Protocol: as §1

[16] = system: Candida glabrata ZIM 2344 (RPMI); assay: as above
Protocol: as §1

[17] = system: Candida glabrata ZIM 2369 (RPMI); assay: as above
Protocol: as §1

[18] = system: Candida glabrata ZIM 2385 (RPMI); assay: as above
Protocol: as §1

[19] = system: Candida glabrata ZIM 2382 (RPMI); assay: as above
Protocol: as §1

[20] = system: Saccharomyces cerevisiae ZIM 2255 (RPMI); assay: as above
Protocol: as §1

[21] = system: Candida glabrata ZIM 2389 (RPMI); assay: as above
Protocol: as §1

[22] = system: Saccharomyces cerevisiae ZIM 2260 (RPMI); assay: as above
Protocol: as §1

[23] = system: Candida glabrata ZIM 2365 (RPMI); assay: as above
Protocol: as §1

[24] = system: Saccharomyces cerevisiae ZIM 2269 (RPMI); assay: as above
Protocol: as §1

[25] = system: Saccharomyces cerevisiae ZIM 2247 (RPMI); assay: Bliss independence sum of statistically significant ΔE (measured minus predicted growth inhibition) over checkerboard surface (fraction (sum of ΔE; 1 = 100%)); higher = more synergy
[26] = system: Candida glabrata ZIM 2369 (RPMI); assay: as above
[27] = system: Candida glabrata ZIM 2382 (RPMI); assay: as above
[28] = system: Saccharomyces cerevisiae ZIM 2255 (RPMI); assay: as above

`CN(Cc1cnc2nc(N)nc(N)c2n1)c1ccc(C(=O)N[C@@H](CCC(=O)O)C(=O)O)cc1` [methotrexate] + CCC(C)n1ncn(-c2ccc(N3CCN(c4ccc(OCC5COC(Cn6cncn6)(c6ccc(Cl)cc6Cl)O5)cc4)CC3)cc2)c1=O [itraconazole] showed an FICI minimum [1] of 1, an FICI minimum [2] of 0.505 and an FICI minimum [3] of 0.656. The FICI minimum [4] was 1, the FICI minimum [5] was 1 and the FICI minimum [6] was 0.505. For the same compound, the FICI minimum [7] was 1, the FICI minimum [8] was 1 and the FICI minimum [9] was 1. It also gave an FICI minimum [10] of 1.08, an FICI minimum [11] of 0.505 and an FICI minimum [12] of 1. It also gave an FICI maximum [13] of 1.16, an FICI maximum [14] of 1.16 and an FICI maximum [15] of 1.08. The FICI maximum [16] was 1.16, the FICI maximum [17] was 1.16 and the FICI maximum [18] was 2.16. The FICI maximum [19] was 2.16, the FICI maximum [20] was 1.08 and the FICI maximum [21] was 2.04. For the same compound, the FICI maximum [22] was 2.04, the FICI maximum [23] was 1.16 and the FICI maximum [24] was 1.16. The Bliss independence sum [25] was 0.35, the Bliss independence sum [26] was -0.495 and the Bliss independence sum [27] was -1.18. It also gave a Bliss independence sum [28] of 1.41.
With `C=CC[C@@H]1/C=C(\C)C[C@H](C)C[C@H](OC)[C@H]2O[C@@](O)(C(=O)C(=O)N3CCCC[C@H]3C(=O)O[C@H](/C(C)=C/[C@@H]3CC[C@@H](O)[C@H](OC)C3)[C@H](C)[C@@H](O)CC1=O)[C@H](C)C[C@@H]2OC` [tacrolimus] + CCC(C)n1ncn(-c2ccc(N3CCN(c4ccc(OCC5COC(Cn6cncn6)(c6ccc(Cl)cc6Cl)O5)cc4)CC3)cc2)c1=O [itraconazole] the FICI minimum [1] was 0.13, the FICI minimum [2] was 0.501 and the FICI minimum [3] was 0.25. For the same compound, the FICI minimum [4] was 0.125, the FICI minimum [5] was 0.25 and the FICI minimum [6] was 0.0725. For the same compound, the FICI minimum [7] was 1, the FICI minimum [8] was 0.254 and the FICI minimum [9] was 0.126. The FICI minimum [10] was 0.251, the FICI minimum [11] was 0.5 and the FICI minimum [12] was 0.75. It also gave an FICI maximum [13] of 1, an FICI maximum [14] of 0.52 and an FICI maximum [15] of 0.51. The FICI maximum [16] was 0.5, the FICI maximum [17] was 0.5 and the FICI maximum [18] was 0.5. The FICI maximum [19] was 1, the FICI maximum [20] was 0.502 and the FICI maximum [21] was 0.126. It also gave an FICI maximum [22] of 0.5, an FICI maximum [23] of 1.01 and an FICI maximum [24] of 2.5. For the same compound, the Bliss independence sum [25] was 6.82, the Bliss independence sum [26] was 3.73 and the Bliss independence sum [27] was 1.94. The Bliss independence sum [28] was 7.07.
`CC1(C)S[C@@H]2[C@H](NC(=O)[C@H](N)c3ccc(O)cc3)C(=O)N2[C@H]1C(=O)O` [amoxicillin] + CCC(C)n1ncn(-c2ccc(N3CCN(c4ccc(OCC5COC(Cn6cncn6)(c6ccc(Cl)cc6Cl)O5)cc4)CC3)cc2)c1=O [itraconazole] showed an FICI minimum [1] of 1.01, an FICI minimum [2] of 0.508 and an FICI minimum [3] of 0.508. The FICI minimum [4] was 0.0703, the FICI minimum [5] was 1.01 and the FICI minimum [6] was 1.01. The FICI minimum [7] was 1.01, the FICI minimum [8] was 1.01 and the FICI minimum [9] was 1.01. The FICI minimum [10] was 1.01, the FICI minimum [11] was 0.562 and the FICI minimum [12] was 1. The FICI maximum [13] was 2.12, the FICI maximum [14] was 1.25 and the FICI maximum [15] was 0.75. The FICI maximum [16] was 0.375, the FICI maximum [17] was 1.25 and the FICI maximum [18] was 1.25. The FICI maximum [19] was 2.25, the FICI maximum [20] was 1.25 and the FICI maximum [21] was 1.25. For the same compound, the FICI maximum [22] was 1.25, the FICI maximum [23] was 1.25 and the FICI maximum [24] was 1.25. It also gave a Bliss independence sum [25] of -3.04, a Bliss independence sum [26] of 0.313 and a Bliss independence sum [27] of -0.629. For the same compound, the Bliss independence sum [28] was 0.234.
Compound `C=CC[C@@H]1/C=C(\C)C[C@H](C)C[C@H](OC)[C@H]2O[C@@](O)(C(=O)C(=O)N3CCCC[C@H]3C(=O)O[C@H](/C(C)=C/[C@@H]3CC[C@@H](O)[C@H](OC)C3)[C@H](C)[C@@H](O)CC1=O)[C@H](C)C[C@@H]2OC` [tacrolimus] + C[C@@H]1[C@H](O)[C@@H](C)/C=C/C=C/C=C/C=C/C=C/C=C/C=C/[C@H](O[C@@H]2O[C@H](C)[C@@H](O)[C@H](N)[C@@H]2O)C[C@@H]2O[C@](O)(C[C@@H](O)C[C@@H](O)[C@H](O)CC[C@@H](O)C[C@@H](O)CC(=O)O[C@H]1C)C[C@H](O)[C@H]2C(=O)O [amphotericin B] has an FICI minimum [1] of 0.25, an FICI minimum [2] of 0.0638 and an FICI minimum [3] of 0.252. The FICI minimum [4] was 0.516, the FICI minimum [5] was 0.258 and the FICI minimum [6] was 0.281. For the same compound, the FICI minimum [7] was 0.251, the FICI minimum [8] was 0.0938 and the FICI minimum [9] was 0.26. For the same compound, the FICI minimum [10] was 0.251, the FICI minimum [11] was 0.25 and the FICI minimum [12] was 0.0825. It also gave an FICI maximum [13] of 0.625, an FICI maximum [14] of 0.126 and an FICI maximum [15] of 0.501. It also gave an FICI maximum [16] of 1, an FICI maximum [17] of 1.25 and an FICI maximum [18] of 1. It also gave an FICI maximum [19] of 1.01, an FICI maximum [20] of 0.508 and an FICI maximum [21] of 1. It also gave an FICI maximum [22] of 0.5, an FICI maximum [23] of 0.51 and an FICI maximum [24] of 0.501. The Bliss independence sum [25] was 20.9, the Bliss independence sum [26] was 4.67 and the Bliss independence sum [27] was 0.265. It also gave a Bliss independence sum [28] of 11.4.
`COc1c(C)c2c(c(O)c1C/C=C(\C)CCC(=O)O)C(=O)OC2` [mycophenolic acid] + C[C@@H]1[C@H](O)[C@@H](C)/C=C/C=C/C=C/C=C/C=C/C=C/C=C/[C@H](O[C@@H]2O[C@H](C)[C@@H](O)[C@H](N)[C@@H]2O)C[C@@H]2O[C@](O)(C[C@@H](O)C[C@@H](O)[C@H](O)CC[C@@H](O)C[C@@H](O)CC(=O)O[C@H]1C)C[C@H](O)[C@H]2C(=O)O [amphotericin B] was tested, and the FICI minimum [1] was 0.633, the FICI minimum [2] was 0.767 and the FICI minimum [3] was 0.375. It also gave an FICI minimum [4] of 0.625, an FICI minimum [5] of 0.75 and an FICI minimum [6] of 0.5. The FICI minimum [7] was 0.5, the FICI minimum [8] was 1 and the FICI minimum [9] was 0.531. It also gave an FICI minimum [10] of 0.58, an FICI minimum [11] of 0.5 and an FICI minimum [12] of 1.03. For the same compound, the FICI maximum [13] was 1.07, the FICI maximum [14] was 1.53 and the FICI maximum [15] was 1.03. It also gave an FICI maximum [16] of 1.06, an FICI maximum [17] of 1.12 and an FICI maximum [18] of 1.06. It also gave an FICI maximum [19] of 1.06, an FICI maximum [20] of 1.25 and an FICI maximum [21] of 1.01. It also gave an FICI maximum [22] of 1.04, an FICI maximum [23] of 1.02 and an FICI maximum [24] of 1.25. The Bliss independence sum [25] was -2.18, the Bliss independence sum [26] was 0.709 and the Bliss independence sum [27] was 1.76. For the same compound, the Bliss independence sum [28] was -0.43.
